Some test systems named below: OVCAR-5 ovarian; CCRF-CEM leukemia; SW-620 colon; NCI-H23 lung; KM12 colon; IGROV1 ovarian; COLO 205 colon; OVCAR-8 ovarian; UO-31 renal; DU-145 prostate.
Common to all, as to test: NCI anticancer screen, dose series, 48 h

This is an account of results in PubChem BioAssay (NCI).

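Tested at 5 concentrations; 48 h exposure; 96-well plates; endpoints linearly interpolated, else capped at highest concentration. GI50: concentration for 50% inhibition of growth. TGI marks complete inhibition of growth.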

As for `N.N.NC(CS)C(=O)[O-].NC(CS)C(=O)[O-].[Pt+4]` (centres undefined), the GI50 in the experiment with OVCAR-5 ovarian, with CCRF-CEM leukemia, in the experiment on SW-620 colon, with NCI-H23 lung, in the experiment with KM12 colon and in the experiment on IGROV1 ovarian was > 50 µM each time. Further, the GI50 in the experiment on COLO 205 colon is > 50 µM; in the experiment with OVCAR-8 ovarian it was > 50 µM; in the experiment on UO-31 renal, > 5 µM. Also, the TGI with OVCAR-5 ovarian, in the experiment with CCRF-CEM leukemia, in the experiment on SW-620 colon, in the experiment with NCI-H23 lung, with KM12 colon and in the experiment with IGROV1 ovarian was > 50 µM throughout. Moreover, the TGI in the experiment with COLO 205 colon is > 50 µM; with OVCAR-8 ovarian, > 50 µM; in the experiment with UO-31 renal, > 5 µM.
On to `CCSc1nc(N=Cc2cccs2)c2cn[nH]c2n1`, for which the GI50 in the experiment on OVCAR-5 ovarian is 14.2 µM; in the experiment with SW-620 colon, 19.7 µM; in the experiment on NCI-H23 lung, 11.2 µM; in the experiment on KM12 colon it was 3.31 µM; in the experiment on DU-145 prostate, 15.1 µM; with IGROV1 ovarian, 23.6 µM. The figures for the GI50 in the experiment with COLO 205 colon, in the experiment on OVCAR-8 ovarian and in the experiment with UO-31 renal were 10.9 µM, 55.9 µM and 53.5 µM, respectively. Moreover, the TGI with OVCAR-5 ovarian was 50.9 µM; in the experiment with SW-620 colon, > 100 µM; in the experiment with NCI-H23 lung it was 23.2 µM; in the experiment with KM12 colon, 16.1 µM; in the experiment on DU-145 prostate, > 100 µM; in the experiment on IGROV1 ovarian, > 100 µM. Moreover, the results for the TGI with COLO 205 colon, in the experiment on OVCAR-8 ovarian and in the experiment on UO-31 renal were 24.9 µM, > 100 µM and > 100 µM, respectively.
As for `CC(=O)/C=C/c1ccc(C2CC(C)=Nc3c(ccc4c3C(=O)c3ccccc3C4=O)N2)cc1` (centres undefined), the TGI was > 100 µM in the experiment on OVCAR-5 ovarian; > 100 µM in the experiment with CCRF-CEM leukemia; > 100 µM in the experiment on SW-620 colon; > 100 µM in the experiment on NCI-H23 lung; > 23.6 µM in the experiment with KM12 colon; > 100 µM in the experiment on IGROV1 ovarian. The TGI in the experiment on COLO 205 colon, in the experiment with OVCAR-8 ovarian and in the experiment with UO-31 renal was > 100 µM in each case.
Turning to `Nc1c(-c2nc3ccccc3[nH]2)sc(=S)n1-c1ccccc1`, the TGI in the experiment on OVCAR-5 ovarian was > 100 µM; in the experiment with CCRF-CEM leukemia it was 81.2 µM; in the experiment on SW-620 colon it was > 100 µM; with NCI-H23 lung it was > 100 µM; in the experiment with KM12 colon, > 100 µM; with IGROV1 ovarian it was > 100 µM. Further, the TGI in the experiment on COLO 205 colon, in the experiment on OVCAR-8 ovarian and in the experiment with UO-31 renal was > 100 µM each time.
As to `CCOC(=O)C1C(=O)c2ccccc2CN1Cc1ccccc1` (centres undefined), the TGI in the experiment with OVCAR-5 ovarian, with CCRF-CEM leukemia, with SW-620 colon, in the experiment on NCI-H23 lung, with KM12 colon and in the experiment on IGROV1 ovarian was > 100 µM in each case. Further, the TGI in the experiment with COLO 205 colon, in the experiment with OVCAR-8 ovarian and in the experiment on UO-31 renal was > 100 µM each time.
For the molecule `CC(=O)OCC1OC(n2c(=O)n(-c3ccccc3)c(=O)c3ccccc32)C(OC(C)=O)C(OC(C)=O)C1OC(C)=O` (centres undefined), the TGI in the experiment on OVCAR-5 ovarian, in the experiment with CCRF-CEM leukemia, in the experiment with SW-620 colon, with NCI-H23 lung, with KM12 colon and with IGROV1 ovarian was > 100 µM each time. Moreover, the TGI in the experiment on COLO 205 colon, in the experiment with OVCAR-8 ovarian and in the experiment on UO-31 renal was > 100 µM throughout.
As for `CCOC(=O)Oc1c(OC)cc(C(=O)O[C@@H]2C[C@@H]3CN4CCc5c([nH]c6cc(OC)ccc56)[C@H]4C[C@@H]3[C@H](C(=O)OC)[C@H]2OC)cc1OC`, the GI50 with OVCAR-5 ovarian was 18 µM; in the experiment with SW-620 colon, 3.67 µM; in the experiment with NCI-H23 lung it was 5.24 µM; with KM12 colon, 4.7 µM; in the experiment with DU-145 prostate it was 13.5 µM; in the experiment with IGROV1 ovarian, 9.58 µM. Besides, the results for the GI50 with COLO 205 colon, in the experiment with OVCAR-8 ovarian and in the experiment on UO-31 renal were 10.3 µM, 4.94 µM and 5.18 µM, respectively. Besides, the TGI with OVCAR-5 ovarian stood at 48.1 µM; with SW-620 colon it was 19.4 µM; in the experiment with NCI-H23 lung, 21.8 µM; with KM12 colon, 17.7 µM; in the experiment with DU-145 prostate, 95.8 µM; with IGROV1 ovarian, 39.2 µM. The TGI with COLO 205 colon was 24.1 µM; in the experiment with OVCAR-8 ovarian, 21.1 µM; in the experiment on UO-31 renal, > 100 µM.
For the molecule `C/C=C(\C)C(=O)O[C@H]1C=CC(=O)O[C@H]1CNC(=O)[C@H](C)O`, the GI50 is 19.9 µM in the experiment on OVCAR-5 ovarian; 14.6 µM in the experiment on SW-620 colon; 22.1 µM in the experiment on NCI-H23 lung; 17 µM with KM12 colon; 31.7 µM with DU-145 prostate; 22.6 µM in the experiment on IGROV1 ovarian. The GI50 in the experiment with COLO 205 colon is 12.6 µM; in the experiment on OVCAR-8 ovarian it was 24.3 µM; in the experiment with UO-31 renal it was 16.9 µM. Also, the TGI with OVCAR-5 ovarian was 38.3 µM; in the experiment with SW-620 colon, 28.6 µM; with NCI-H23 lung, 47.8 µM; with KM12 colon, 32 µM; in the experiment on DU-145 prostate, > 100 µM; in the experiment with IGROV1 ovarian, 53.3 µM. The TGI in the experiment on COLO 205 colon amounted to 29.3 µM; with OVCAR-8 ovarian, 65.9 µM; with UO-31 renal it was 33.4 µM.
Consider `CCOP(=O)(OCC)/C(C#N)=C/c1ccco1`, for which the TGI in the experiment on OVCAR-5 ovarian, in the experiment on CCRF-CEM leukemia, with SW-620 colon, with NCI-H23 lung, with KM12 colon and in the experiment with IGROV1 ovarian was > 100 µM in each case. In addition, the TGI in the experiment with COLO 205 colon, with OVCAR-8 ovarian and with UO-31 renal was > 100 µM in each case.
Consider `COC(=O)c1c(CC#N)cccc1CC#N`, for which the TGI in the experiment on OVCAR-5 ovarian, in the experiment with CCRF-CEM leukemia, in the experiment on SW-620 colon, with NCI-H23 lung, in the experiment on KM12 colon and in the experiment with IGROV1 ovarian was > 100 µM each time. Moreover, the TGI with COLO 205 colon, in the experiment on OVCAR-8 ovarian and with UO-31 renal was > 100 µM each time.
Regarding `Cc1nc2cccc(NCc3ccc(C(=O)NO)cc3)c2c(=O)n1-c1ccccc1`, the GI50 in the experiment on OVCAR-5 ovarian is 2.13 µM; in the experiment on CCRF-CEM leukemia it was 2.09 µM; in the experiment with SW-620 colon it was 1.55 µM; in the experiment on NCI-H23 lung it was 1.63 µM; with KM12 colon, 1.8 µM; with DU-145 prostate, 2.7 µM. Also, the GI50 in the experiment with COLO 205 colon was 1.87 µM; with OVCAR-8 ovarian, 1.52 µM; with UO-31 renal, 1.37 µM. In addition, the TGI in the experiment on OVCAR-5 ovarian was 6.75 µM; in the experiment with CCRF-CEM leukemia, > 100 µM; in the experiment with SW-620 colon it was 5.99 µM; in the experiment with NCI-H23 lung, 3.18 µM; in the experiment with KM12 colon, 3.59 µM; in the experiment on DU-145 prostate it was 11.9 µM. The TGI in the experiment on COLO 205 colon came to 3.97 µM; with OVCAR-8 ovarian, 3.75 µM; with UO-31 renal, 3.15 µM.
